Measurements taken from patent publication US7320863B2 (Albert Einstein College of Medicine of Yeshiva University, priority 1996, dated 2008).

Legend:
[1] = target: T1, rat sodium/iodide symporter (Rattus norvegicus, UniProt Q63008)
T1 sequence (Q63008 1-618): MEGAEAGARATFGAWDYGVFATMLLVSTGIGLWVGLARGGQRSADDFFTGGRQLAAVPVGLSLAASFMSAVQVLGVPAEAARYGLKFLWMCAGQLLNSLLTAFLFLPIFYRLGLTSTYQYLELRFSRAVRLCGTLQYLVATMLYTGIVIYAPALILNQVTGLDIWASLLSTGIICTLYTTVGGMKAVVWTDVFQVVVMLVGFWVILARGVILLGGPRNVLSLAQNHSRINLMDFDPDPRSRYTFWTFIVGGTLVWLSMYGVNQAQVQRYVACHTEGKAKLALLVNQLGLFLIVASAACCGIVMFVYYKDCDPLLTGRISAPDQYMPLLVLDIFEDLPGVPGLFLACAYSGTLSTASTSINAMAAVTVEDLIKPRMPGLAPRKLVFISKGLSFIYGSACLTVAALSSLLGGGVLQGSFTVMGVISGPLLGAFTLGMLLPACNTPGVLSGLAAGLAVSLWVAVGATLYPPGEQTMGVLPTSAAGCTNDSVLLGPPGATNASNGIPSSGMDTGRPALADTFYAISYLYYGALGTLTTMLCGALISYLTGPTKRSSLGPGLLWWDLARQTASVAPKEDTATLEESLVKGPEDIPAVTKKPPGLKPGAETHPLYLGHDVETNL
Procedure: Transcripts were injected into oocytes and oocytes were assayed for perchlorate-sensitive Na^+/I^− symport activity as described in Weiss, et al., supra.
Control assays were carried out in oocytes microinjected with water (lane-1). Na^+-dependence was ascertained by using choline in place of Na^+, and perchlorate sensitivity was tested by conducting assays in the presence of both Na+ and perchlorate.

[2] = target: T1, rat sodium/iodide symporter; experiment: Iodide accumulation in COS cells transfected with sodium/iodide symporter cDNA; format: cell-based; parameters: Beginning with Met at position 1, a long open reading frame codes for a protein of 618 amino acids; expressed in transfected cells; host or cells: Xenopus laevis oocytes microinjected with cRNA transcribed in vitro (T7 RNA polymerase) from the cDNA clone in pSPORT; conditions: COS cells transfected with symporter cDNA clone, assayed 48 h after transfection
Procedure: In FIG. 1A oocytes were microinjected with water (lane 1), 50 ng mRNA from FRTL-5 cells (lane 2), or approximately 20 ng cRNA transcripts made in vitro from pools containing the indicated number of cDNA clones (lanes 3-7, numbers without parentheses at bottom of FIG. 1A). […] Inset: Double reciprocal plot. […] Each point represents the average of triplicate determinations+/−SE.
A directional cDNA library was prepared in the PSPORT (BRL) vector from poly A^+ RNA isolated from FRTL-5 cells. cRNAs were synthesized in vitro using T7 RNA polymerase in the presence of m^7 GpppG from pools of cDNA clones. Transcripts were injected into oocytes and oocytes were assayed for perchlorate-sensitive Na^+/I^− symport activity as described in Weiss, et al., supra.

generated iodide concentration gradient ([1]; 50 μM iodide in transport solution, functional volume 0.5 μl/oocyte) [fold]	Structure (SMILES)	Na+/I- symport activity in the presence of perchlorate ([1]; assayed in the presence of both Na+ and perchlorate, 45 min)	perchlorate sensitivity of Na+/I- symport activity [2]
> 30	I [iodide]		
	[O-][Cl+3]([O-])([O-])O [perchlorate]	virtually indistinguishable from background	perchlorate-sensitive
